US20240382474A1, “ENPP1 MODULATORS AND USES THEREOF” (Vir Biotechnology, Inc., priority 2021, published 2024)
Entries after “also recorded” stand apart in the source; their conditions may differ.

Assays:
MC38 tumor xenografts [1] = test: Treatment of mice bearing MC38 tumor xenografts (Study 2): tumor volume, survival, body weight; assay type: in vivo, C57BL/6 mice
Protocol: (§1) In this study, 6-8 week old female C57BL/6 mice were implanted subcutaneously in the flank with 5×10^5 MC38 cells. Tumors were measured every 2-3 days using a caliper. Body weight was measured every 2-3 days. Dosing initiated on Day (when the average tumor volume reached 50 mm^3 with 15 animals assigned to each treatment group. Animals were dosed orally by gavage with Compound 26 (4 mg/kg PO QD) or Compound 56 (either 1 mg/kg PO QD or 12 mg/kg PO QD).
(§2) A subset of 5 animals from each group were collected on day 10 after the initiation of dosing. Tumors were harvested and lysed via sonication. Supernatants were collected, adjusted for total protein, and assayed using a Luminex cytokine and chemokine panel (Invitrogen) and an IFN-β ELISA. The remaining 10 animals in each group were dosed and monitored through Day 27 or until tumors reached 2 cm in size.
FIG. 2A provides a graph of mean tumor volumes for this set of mice bearing MC38 tumor xenografts. Mice were divided into four groups: (1) control group, who received no treatment (black circles, solid line); (2) mice who received Compound 26 dosed at 4 mg/kg PO QD (grey squares, dashed line); (3) mice who received Compound 56 dosed at 12 mg/kg PO QD (grey triangles, dotted line); and (4) mice who received Compound 56 dosed at 1 mg/kg PO QD (empty circles, dotted dashed line).

MC38 tumor xenografts [2] = test: Treatment of mice bearing MC38 tumor xenografts (Study 1); assay type: in vivo, C57BL/6 mice
Protocol: Ten week old female C57BL/6 mice were implanted subcutaneously in the flank with 5×10^5 MC38 cells. Tumors were measured every 2-3 days using a caliper. Body weight was measured every 2-3 days. Dosing initiated on Day (when the average tumor volume reached 50 mm^3. Five animals were assigned to each treatment group. Animals were dosed orally by gavage with Compound 26 for 10 days and were monitored through Day 32 or until tumors reached 2.000 mm^3 in volume.
FIG. 1 provides a graph of mean tumor volumes for this set of mice bearing MC38 tumor xenografts. Mice were divided into three groups: (1) control group, who received no treatment (black circles, solid line); (2) mice who received Compound 26 dosed at 4 mg/kg PO QD (grey triangles, dashed lines); and (3) mice who received Compound 26 dosed at 60 mg/kg PO QD (grey squares, dotted line). In each treatment group, compound 26 was administered once a day for 10 consecutive days, at which time, treatment was ceased.

[3] = target: T1, human ENPP1 enzymatic domain (Homo sapiens, UniProt P22413); test: ENPP1 Enzymatic Inhibition Assay (2′3′-cGAMP substrate, AMP-Glo luminescence); assay type: biochemical; details: 1 nM ENPP1, 20 uM 2′3′-cGAMP, 30 minutes at 37° C.
T1 construct: recombinant protein containing the human ENPP1 enzymatic domain; purchased Viva Biotech
T1 sequence (P22413 191-591 limits assumed): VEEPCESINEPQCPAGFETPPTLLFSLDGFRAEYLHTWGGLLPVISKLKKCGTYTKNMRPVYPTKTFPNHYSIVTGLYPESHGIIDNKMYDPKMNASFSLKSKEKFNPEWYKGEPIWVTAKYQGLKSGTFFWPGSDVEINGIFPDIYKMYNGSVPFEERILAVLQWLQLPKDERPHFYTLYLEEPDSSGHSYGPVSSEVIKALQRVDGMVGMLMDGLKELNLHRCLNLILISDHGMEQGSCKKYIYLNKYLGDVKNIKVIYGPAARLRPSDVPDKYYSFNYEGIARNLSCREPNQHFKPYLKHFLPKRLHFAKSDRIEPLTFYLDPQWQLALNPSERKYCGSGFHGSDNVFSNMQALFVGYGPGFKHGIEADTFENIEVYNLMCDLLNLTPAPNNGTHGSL
Protocol: The inhibition of ENPP1's phosphodiesterase activity were tested in a purified enzymatic assay using 2′3′-cyclic GAMP as a substrate which allowed for the release of cleaved AMP to be monitored using a luminescent assay.
Putative inhibitors were diluted in assay buffer (50 mM Tris pH 8.0, 250 mM NaCl, 0.5 mM CaCl2), 1 uM ZnCl2, 1% DMSO) and pre-incubated for 15 minutes at 37° C. with recombinant protein containing the human ENPP1 enzymatic domain (Viva Biotech). The enzymatic reaction was initiated upon addition of the 2′3′-cGAMP substrate. The final reaction concentrations were 1 nM ENPP1 and 20 uM 2′3′-cGAMP substrate in a 25 uL volume. Inhibitor concentrations ranged from 10 uM to 0.056 nM. The reaction was incubated for 30 minutes at 37° C.
After reacting for 30 minutes, the amount of AMP generated from the cleavage of 2′3′-cGAMP was determined using the Promega AMP-Glo method according to the manufacturer's protocol. First, AMP-Glo reagent 1 was added and incubated with the reaction mix for 1 hour at room temperature. Second, AMP Detection solution was added and the mixture was incubated for an additional hour. The luminescence of the mixture was read on a Perkin Elmer Ensight plate reader.
The maximum and minimum levels of ENPP1 activity were established using no inhibitor and no enzyme controls, respectively. The activity observed using ENPP1 inhibitors was quantified as the percent of activity relative to these controls. IC50 values were calculated using CDD Vault by fitting a sigmoidal variable slope nonlinear regression model to the data.

MC38 tumor xenografts [4] = test: Treatment of mice bearing MC38 tumor xenografts (Study 3); assay type: in vivo, C57BL/6 mice; details: for survival: day to which some mice survived (Kaplan-Meier, FIG. 5B): all untreated mice deceased by day 21
Protocol: as §1, with “when” for “on Day (when”, “7” for “15”, “once daily through Day 27” for “by gavage with Compound 26 (4 mg/kg PO QD)”, “until tumors reached 2 cm in size.” for “Compound 56 (either 1 mg/kg PO QD or 12 mg/kg PO QD).”
FIGS. 5A-5B provide data for a fourth set of mice bearing MC38 tumor xenografts. FIG. 5A provides a graph of median tumor volumes for this set of mice. Mice were divided into three groups: (1) control group, who received no treatment (circles); (2) mice who received Compound 26 dosed at 4 mg/kg PO QD (squares); and (3) mice who received Compound 56 dosed at 12 mg/kg PO QD (triangles). […] For example, at day 20, tumor volumes for the untreated mice were between 2000 and 3000 mm^3, while for treated mice had tumor volumes between 1000 and 2000 mm^3.

MC38 tumors = test: Intratumoral cytokine levels at day 10 in MC38 tumors (Study 2; Luminex cytokine and chemokine panel, IFN-β ELISA); assay type: in vivo, C57BL/6 mice; details: 12 mg/kg QD
Protocol: as §1, §2
Intratumoral concentrations for each of these inflammatory cytokines are provided in picogram of cytokine per gram of tumor tissue. FIGS. 4B-F each provide data for each of the following: (1) untreated control group (circles); (2) mice treated with 4 mg/kg QD Compound 26 (triangles); (3) mice treated with 12 mg/kg QD […]; and (4) mice treated with […].

SMILES	mean tumor volume compared to the untreated group (FIG. 2A) (MC38 tumor xenografts [1]; 4 mg/kg PO QD)	survival: day to which some mice survived (Kaplan-Meier, FIG. 3A) (MC38 tumor xenografts [1]; 4 mg/kg PO QD, all untreated mice deceased by day 22) [days]	mean tumor volume compared to the control group (FIG. 1) (MC38 tumor xenografts [2]; 4 mg/kg PO QD for 10 days)	mean tumor volume compared to the control group (FIG. 1) (MC38 tumor xenografts [2]; 60 mg/kg PO QD for 10 days)	IC50 [3] [nM]	median tumor volumes compared to the untreated group (FIG. 5A) (MC38 tumor xenografts [4]; 4 mg/kg PO QD)	survival: day to which some mice survived (Kaplan-Meier, FIG. 5B) (MC38 tumor xenografts [4]; 4 mg/kg PO QD) [days]	mean tumor volume compared to the untreated group (FIG. 2A) (MC38 tumor xenografts [1]; 1 mg/kg PO QD)	survival: day to which at least one mouse survived (Kaplan-Meier, FIG. 3A) (MC38 tumor xenografts [1]; 1 mg/kg PO QD, all untreated mice deceased by day 22) [days]	mean tumor volume compared to the untreated group (FIG. 2A) (MC38 tumor xenografts [1]; 12 mg/kg PO QD)	survival: day to which at least one mouse survived (Kaplan-Meier, FIG. 3A) (MC38 tumor xenografts [1]; 12 mg/kg PO QD, all untreated mice deceased by day 22) [days]	median intratumoral concentration of eotaxin (FIG. 4F) (MC38 tumors)	median intratumoral concentration of interferon beta (IFN beta) (FIG. 4B) (MC38 tumors)	median intratumoral concentration of interferon γ-induced protein 10 kDa (IP-10) (FIG. 4C) (MC38 tumors)	median intratumoral concentration of macrophage inflammatory protein-1-beta (MIP-1beta) (FIG. 4D) (MC38 tumors)	median intratumoral concentration of monocyte-chemotactic protein 3 (MCP-3) (FIG. 4E) (MC38 tumors)	median tumor volumes compared to the untreated group (FIG. 5A) (MC38 tumor xenografts [4]; 12 mg/kg PO QD)	survival: day to which some mice survived (Kaplan-Meier, FIG. 5B) (MC38 tumor xenografts [4]; 12 mg/kg PO QD) [days]
COc1ccc2c(Oc3ccc([S@@](=N)(=O)NC[C@@H](C)O)cc3)ccnc2c1 [Compound 26, (S)-N-((R)-2-hydroxypropyl)-4-((7-methoxyquinolin-4-yl)oxy)benzenesulfonimidamide]	smaller	24	lower	lower	< 10	significantly lower	24											
COc1ccc2c(Nc3ccc([S@@](=N)(=O)NC[C@@H](C)O)cc3)ccnc2c1 [Compound 56, (S)-N-((R)-2-hydroxypropyl)-4-((7-methoxyquinolin-4-yl)amino)benzenesulfonimidamide]					< 10			smaller	> 27	smaller; also recorded: greatest reduction in tumor volume	> 27	~15000 pg eotaxin/g of tumor	> 400 pg IFNbeta/g of tumor	3000-4000 pg IP-10/g of tumor	~9000 pg MIP-1 beta/g of tumor	20000-30000 pg MCP-3/g of tumor	significantly lower	≥ 27
